Surviving fraction data for six test systems are collected here from the supplement of paper PMC6045584.

Compound in assay [1]: CC(=O)NCC(=O)N1[C@@H]2CC[C@H]1c1ccc(Nc3ncc(C(F)(F)F)c(NC4CCC4)n3)cc12
In words: surviving fraction relative to DMSO-only wells; higher = less growth inhibition. The settings on record: exposure time: 5 days. A digest of the protocol: (§1)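 At 250–500 cells per well in 384-well plates, log-phase tumour cell lines were seeded and, 24 hours on, exposed continuously for five days to inhibitors at 0.5, 1, 5, 10, 50, 100, 500 and 1000 nM. Viability readout was CellTiter-Glo luminescence, reported as surviving fraction normalised to the median of DMSO-only wells.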

Compound in another assay: O=C(O)C1(C(=O)O)CCC1.[NH2-].[NH2-].[Pt+2] [CARBOPLATIN]
Described as above. The settings on record: exposure time: 5 days. A digest of the protocol:
as §1

± gives the standard deviation of the averaged measurements.

On to MHM BONE, for which the surviving fraction amounted to 0.986 ± 0.016 in assay [1] (0.5 nM); 0.989 ± 0.031 in assay [1] (1 nM); 0.979 ± 0.019 in assay [1] (5 nM); 0.999 ± 0.011 in assay [1] (10 nM); 0.986 ± 0.034 in assay [1] (50 nM); 0.96 ± 0.041 in assay [1] (100 nM). The surviving fraction was determined as 0.764 ± 0.02 in assay [1] (500 nM); 0.629 ± 0.028 in assay [1] (1000 nM); 1.01 ± 0.027 with CARBOPLATIN (0.5 nM); 1.02 ± 0.025 in the assay with CARBOPLATIN (1 nM); 1.08 ± 0.044 with CARBOPLATIN (5 nM); 1.06 ± 0.058 with CARBOPLATIN (10 nM). Moreover, the surviving fraction worked out at 1.09 ± 0.014 in the assay with CARBOPLATIN (50 nM), 1.07 ± 0.028 in the assay with CARBOPLATIN (100 nM), 1.02 ± 0.04 with CARBOPLATIN (500 nM) and 1.035 ± 0.0078 with CARBOPLATIN (1000 nM).
Turning to PCI30 HEADNECK, the surviving fraction in assay [1] (0.5 nM) was determined as 0.891 ± 0.04; in assay [1] (1 nM), 0.873 ± 0.077; in assay [1] (5 nM) it was 1.01 ± 0.067; in assay [1] (10 nM), 1.04 ± 0.084; in assay [1] (50 nM), 0.964 ± 0.035; in assay [1] (100 nM), 0.625 ± 0.032. Besides, the surviving fraction in assay [1] (500 nM) amounted to 0.567 ± 0.016; in assay [1] (1000 nM) it was 0.564 ± 0.0087; in the assay with CARBOPLATIN (0.5 nM) it was 1.07 ± 0.036; with CARBOPLATIN (1 nM), 1.09 ± 0.04; with CARBOPLATIN (5 nM) it was 1.03 ± 0.021; in the assay with CARBOPLATIN (10 nM), 1.11 ± 0.093. Also, the surviving fraction in the assay with CARBOPLATIN (50 nM) came out at 1.12 ± 0.067; with CARBOPLATIN (100 nM), 1.08 ± 0.03; in the assay with CARBOPLATIN (500 nM), 1.07 ± 0.079; with CARBOPLATIN (1000 nM), 1.07 ± 0.039.
As for SG27 HEADNECK, the surviving fraction in assay [1] (0.5 nM) stood at 1.04 ± 0.03; in assay [1] (1 nM), 1.05 ± 0.042; in assay [1] (5 nM) it was 0.868 ± 0.14; in assay [1] (10 nM), 1.04 ± 0.079; in assay [1] (50 nM) it was 0.948 ± 0.054; in assay [1] (100 nM), 0.872 ± 0.043. For the same test system, the surviving fraction in assay [1] (500 nM) turned out to be 0.843 ± 0.061; in assay [1] (1000 nM), 0.919 ± 0.05; in the assay with CARBOPLATIN (0.5 nM) it was 1.13 ± 0.014; in the assay with CARBOPLATIN (1 nM) it was 1.05 ± 0.017; in the assay with CARBOPLATIN (5 nM), 1.12 ± 0.1; with CARBOPLATIN (10 nM) it was 1.04 ± 0.038. Further, the surviving fraction with CARBOPLATIN (50 nM) was 1.18 ± 0.12; with CARBOPLATIN (100 nM), 1.02 ± 0.13; with CARBOPLATIN (500 nM), 1.14 ± 0.27; with CARBOPLATIN (1000 nM) it was 1.03 ± 0.11.
Turning to BT20 BREAST, the surviving fraction in assay [1] (0.5 nM) turned out to be 1.03 ± 0.028; in assay [1] (1 nM), 0.968 ± 0.062; in assay [1] (5 nM) it was 1.02 ± 0.09; in assay [1] (10 nM), 0.87 ± 0.051; in assay [1] (50 nM), 0.365 ± 0.054; in assay [1] (100 nM), 0.199 ± 0.038. Further, the surviving fraction in assay [1] (500 nM) is 0.293 ± 0.041; in assay [1] (1000 nM), 0.291 ± 0.055; with CARBOPLATIN (0.5 nM), 1.11 ± 0.04; in the assay with CARBOPLATIN (1 nM), 1.19 ± 0.12; with CARBOPLATIN (5 nM) it was 1.39 ± 0.49; with CARBOPLATIN (10 nM), 1.24 ± 0.04. The surviving fraction amounted to 1.2 ± 0.088 with CARBOPLATIN (50 nM), 1.29 ± 0.14 with CARBOPLATIN (100 nM), 1.33 ± 0.16 with CARBOPLATIN (500 nM) and 1.11 ± 0.069 with CARBOPLATIN (1000 nM).
143B BONE: the surviving fraction turned out to be 0.98 ± 0.021 in assay [1] (0.5 nM); 0.996 ± 0.013 in assay [1] (1 nM); 1.01 ± 0.026 in assay [1] (5 nM); 0.966 ± 0.018 in assay [1] (10 nM); 0.868 ± 0.0085 in assay [1] (50 nM); 0.928 ± 0.015 in assay [1] (100 nM). The surviving fraction was 0.597 ± 0.039 in assay [1] (500 nM); 0.495 ± 0.056 in assay [1] (1000 nM); 1.11 ± 0.099 in the assay with CARBOPLATIN (0.5 nM); 1.11 ± 0.083 with CARBOPLATIN (1 nM); 1.13 ± 0.06 with CARBOPLATIN (5 nM); 1.14 ± 0.097 with CARBOPLATIN (10 nM). Also, the surviving fraction was found to be 1.15 ± 0.15 with CARBOPLATIN (50 nM), 1.13 ± 0.053 with CARBOPLATIN (100 nM), 1.13 ± 0.11 with CARBOPLATIN (500 nM) and 1.12 ± 0.11 with CARBOPLATIN (1000 nM).
Consider HCC202 BREAST, for which the surviving fraction in assay [1] (0.5 nM) is 1.54 ± 0.18; in assay [1] (1 nM), 1.09 ± 0.18; in assay [1] (5 nM), 1.44 ± 0.13; in assay [1] (10 nM), 1.5 ± 0.21; in assay [1] (50 nM) it was 1.46 ± 0.16; in assay [1] (100 nM), 1.32 ± 0.4. Further, the surviving fraction in assay [1] (500 nM) came to 1.32 ± 0.15; in assay [1] (1000 nM) it was 1.08 ± 0.26; with CARBOPLATIN (0.5 nM), 1.19 ± 0.33; with CARBOPLATIN (1 nM), 1.05 ± 0.058; in the assay with CARBOPLATIN (5 nM) it was 1.31 ± 0.09; in the assay with CARBOPLATIN (10 nM) it was 1.07 ± 0.36. Moreover, the surviving fraction in the assay with CARBOPLATIN (50 nM) was determined as 1.02 ± 0.23; with CARBOPLATIN (100 nM), 1.14 ± 0.018; with CARBOPLATIN (500 nM) it was 1.27 ± 0.4; in the assay with CARBOPLATIN (1000 nM) it was 1.34 ± 0.34.
